≈ marks a conversion by molar mass, not a printed value. Structures can show the parent of a compound that is named as a salt.
Columns and labels:
mouse = assay: Acute toxicity, oral, mouse (LD 50, Miller and Tainter); type: in vivo; settings: death rate checked for seven days, 10080 min
Protocol: (§1) The acute toxicity of the compounds of formula (I) were evaluated orally (esophagean probe) on a mouse deprived of food 18 hours before the beginning of the test. The products were placed in suspension in a solution of dilute carboxymethyl cellulose. Calculation of the 50 lethal dose (LD 50) was effected according to the method of Miller and Tainter (Miller L. C., Tainter M. L., Proc. Soc. Exptl. Biol. Med. 1944, 57, 261-264).
(§2) The death rate was checked for seven days following the treatment.
(§3) Table III gives the 50% lethal doses (LD 50) in milligrammes per kilogramme body weight.

[1] = system: human blood-plaques (aggregation with adrenaline); assay: Inhibition of blood-plaque aggregation induced by adrenaline; type: cell-based; settings: hydrochloride
Source text: (§4) The blood plaques used for these studies were human blood-plaques introduced into the test in the form of blood-plaque rich plasmas (B.P.R.P.).
(§5) These latter were obtained as water-repellent material by slow centrifugation from human blood samples.
(§6) The study of blood-plaque aggregation was made by means of an aggregate-meter with continuous agitation and graphic recording according to the conventional method. (PROST R. S., SOUVERAIN C. H., DOUMENC J., Etude de l'agregation plaquettaire a l'aide de l'agregametre de MUSTARD-Coagulation, 1971, 4, 2, 145-151).
(§7) The agents employed for inducing aggregation were diphosphoric adenosine acid (D.P.A.), 1-(3',4'-di-hydroxyphenyl)-2-methylamino ethanol (adrenaline) and collagene. All these reactants were prepared from mother solutions diluted in a Michaelis' buffer. Their concentration in the test may vary according to the affinity of the blood-plaques.
(§8) An optimum concentration is thus sought by successive tests on the same B.P.R.P.
(§9) The inhibitory activity on the aggregation was evaluated by addition of the product under study to the B.P.R.P. before introduction of the aggregating agent.
(§10) The concentrations of compounds of formula I (X) in the B.P.R.P. are: C (X)=2.5×10^-5 g/ml for aggregation with D.P.A. and adrenaline, and C (X)=2×10^-5 g/ml for collagene.
(§11) The reference product (R) is 2,6-bis (diethanolamino)-4,8-dipiperidinopyrimido[5,4-d]pyramidine (known under the trademark "Dipyridamole") used in the concentration C (R)=5×10^-4 g/ml for aggregation with D.P.A. and adrenaline and C (R)=2×10^-4 g/ml for aggregation with collagene.
(§12) The following table IV indicates the activity of some compounds of formula I: a (X) the activity of the reference product: a (R) and the different values of the ratio: [formula]

[2] = system: human blood-plaques (aggregation with collagene); assay: Inhibition of blood-plaque aggregation induced by collagene; type: cell-based; settings: for Ratio of a (X) to a (R), COLLAGENE (head drawn): X 2×10^-5 g/ml, R 2×10^-4 g/ml
Source text: as §4, §5, §6, §7, §8, §9, §10, §11, §12

[3] = system: phenylparaquinone (P.P.Q.) painful syndrome in a mouse; assay: Analgesic and anti-inflammatory activity, phenylparaquinone (P.P.Q.) painful syndrome; type: in vivo; settings: for Analgesic and anti-inflammatory activity, percentage activity a(X): 50 mg/kg digestively, crises between 10 and 15 minutes; for a(X) / a(R), analgesic and anti-inflammatory activity: X 50 mg/kg, R (Galfenine) 25 mg/kg
Protocol: The intraperitoneal injection of phenylparaquinone (P.P.Q.) in a mouse causes the appearance of a painful syndrome appearing within 5 minutes of the injection and disappearing after about 30 minutes (SIEGMUND E. A., CADMUS A., LU G., J. Pharmacol. Exp. Therap. 1957, 119, 453). This painful syndrome manifests itself in the animal by a series of characteristic crises, more or less close together and fleeting, during which we can note a twisting or stretching of the body, a hollowing of the sides and a stretching of the hind legs.
It is therefore possible to note the number of crises in a given interval of time.
The preventive administration of analgesic or anti-inflammatory substances prevents the appearance of crises or reduces the frequency thereof.
The reference substance (R) used in the tests was the ester of N-(7-chloro-4 quinolyl) anthranilic acid and 2,3-dihydroxy n.propanol (known under the trademark Galfenine).
It was administered orally with a dose of 25 mg/kg.
The compounds of formula I (X) were administered digestively with a dose of 50 mg/kg.
The interval of time (t) which was chosen to evaluate the analgesic activity was between 10 and 15 minutes which is the period of maximum frequency of the crises. This activity was expressed in the following way:
n: number of crises observed in the control mice;
n': number of crises observed in mice previously treated with the reference substance (R);
n": number of crises observed in mice having received the substance (X).
The percentage activity of R is equal to [formula]
The percentage activity of X is equal to [formula]
The activity of X in relation to that of R is estimated by the ratio [formula]
For example: a compound X for which [formula] is 0.5 has an activity equal to half that of the reference product.

rat's isolated duodenum = assay: Spasmolytic activity on isolated duodenum contracted by barium chloride (Magnus); settings: for ED 50 (R) / ED 50 (X): relative to papaverine hydrochloride
Protocol: The spasmolytic activity was studied on a rat's isolated duodenum maintained in a survival medium of an aerated Tyrode solution heated to 38° C. according to the technique of Magnus (Magnus R.-Archivs ges. Physiol., 1905, 180, 1-71).
The contracting agent used was barium chloride, the reference antogonist agent being papaverine hydrochloride (R). The average activity of the compounds of formula I (X) in comparison with that of the reference agent was expressed by calculating the ratio of the 50 efficient doses (ED 50) determined graphically on logarithmic paper: [formula]
For example: a substance having a relative activity expressed by the FIG. 2 presents an activity equal to twice that of papaverine hydrochloride.

[4] = system: isolated heart of a gumea-pig; assay: Vaso-dilatatory activity, coronary flow of isolated perfused heart
Protocol: The coronary flow is recorded, by means of an electronic device fitted with a Fleish totaliser, before and after addition of the substance X under study (concentration: 1×10^-5 g/ml), the reference product (R) being 2,6-bis (diethanolamino) 4,8-dipiperidinopyrimido[5,4-d]pyrimidine (known under the trademark "Dipyridamole") used at a concentration of 1×10^-5 g/ml.
The percentage flow increase P was calculated at the climax of the activity of X or R.

[5] = system: human blood-plaques (aggregation with D.P.A.); assay: Inhibition of blood-plaque aggregation induced by D.P.A.; type: cell-based
Source text: as §4, §5, §6, §7, §8, §9, §10, §11, §12

[6] = Acute toxicity, oral, mouse (LD 50, Miller and Tainter); type: in vivo; settings: in vivo, po, death rate checked for seven days, read-out: 50% lethal dose (LD 50) (converted)
Protocol: as §1, §2, §3

human blood-plaques = assay: Blood-plaque aggregation inhibition (all inducers, overall statement); type: cell-based; settings: compared with reference product, taking the ratio into account
Source text: as §4, §5, §6, §7, §8, §9
The concentrations of compounds of formula I (X) in the B.P.R.P. are: C (X)=2.5×10^-5 g/ml for aggregation with D.P.A. and adrenaline, and C (X)=2×10^-5 g/ml for collagene. […]

With `O=C(CCCN1CCOCC1)c1cc2ccccc2s1` [Compound 2, 1-(benzothien-2'-yl)-4-N-morpholino butanone hydrochloride] the “50% lethal dose (LD 50)” value (mouse; hydrochloride) was 1 500 mg/kg/p.o, the “Inhibitory activity of the blood-plaque aggregation, ADRENALINE, a (X)” value ([1]; C (X)=2.5×10^-5 g/ml) was 15% and the “Ratio of a (X) to a (R), ADRENALINE (head drawn)” value ([1]; adrenaline, X 2.5×10^-5 g/ml, R 5×10^-4 g/ml) was 1.65×10^-1. The “Inhibitory activity of the blood-plaque aggregation, COLLAGENE, a (X)” value ([2]; C (X)=2×10^-5 g/ml, hydrochloride) was 12%, the “Ratio of a (X) to a (R), COLLAGENE (head drawn)” value ([2]; hydrochloride) was 3.3×10^-1 and the “Analgesic and anti-inflammatory activity, percentage activity a(X)” value ([3]; hydrochloride) was 38%. The “a(X) / a(R), analgesic and anti-inflammatory activity” value ([3]; hydrochloride) was 5 × 10^-1.
With `CCN(CC)CCCC(=O)c1csc2ccccc12` [Compound 10] the “50% lethal dose (LD 50)” value (mouse) was 1 100 mg/kg/p.o, the “ED 50 (R) / ED 50 (X)” value (rat's isolated duodenum) was 1.05 and the activation at 10 µg/mL ([4]; 1×10^-5 g/ml, coronary flow at climax of activity, Locke, 37° C., read-out: Percentage flow increase P (X)) was 60%. The “P (X) / P (R)” value ([4]; relative to Dipyridamole, both 1×10^-5 g/ml) was 1.4.
With `O=C(CCCN1CCCCCC1)c1csc2ccccc12` [Compound 16] the “50% lethal dose (LD 50)” value (mouse) was 1 200 mg/kg/p.o, the “Inhibitory activity of the blood-plaque aggregation, D.P.A., a (X)” value ([5]; C (X)=2.5×10^-5 g/ml) was 47% and the “Ratio of a (X) to a (R), D.P.A. (head drawn)” value ([5]; D.P.A., X 2.5×10^-5 g/ml, R 5×10^-4 g/ml) was 5.5×10^-1. For the same compound, the inhibition at 20 µg/mL ([2]; Homo sapiens, C (X)=2×10^-5 g/ml, read-out: Inhibitory activity of the blood-plaque aggregation, COLLAGENE, a (X)) was 92%, the “Ratio of a (X) to a (R), COLLAGENE (head drawn)” value [2] was 2.5 and the “ED 50 (R) / ED 50 (X)” value (rat's isolated duodenum) was 2.7. For the same compound, the “Analgesic and anti-inflammatory activity, percentage activity a(X)” value [3] was 44% and the “a(X) / a(R), analgesic and anti-inflammatory activity” value [3] was 5.9 × 10^-1.
With `O=C(CCCN1CCOCC1)c1csc2ccccc12` [Compound 17] the LD50 at 168 h [6] was 1000 mg/kg, the IC50 (rat's isolated duodenum; Rattus norvegicus, barium chloride contraction, Tyrode, 38° C., read-out: Spasmolytic activity ED 50 (X)) was 2.15 µg/mL (≈ 7.43 µM) and the “ED 50 (R) / ED 50 (X)” value (rat's isolated duodenum) was 3.4. The “Analgesic and anti-inflammatory activity, percentage activity a(X)” value [3] was 55%, the “a(X) / a(R), analgesic and anti-inflammatory activity” value [3] was 1.2 and the “Inhibitory activity on the blood-plaque aggregation (in words)” value (human blood-plaques) was “substantially superior”.

Reference: patent US4186136A, “Novel benzothienyl amino (propyl and butyl) ketones, a method of preparation thereof and their application to therapeutics” (priority 1975, dated 1980)
